From the NIST ThermoML archive (doi:10.1016/j.fluid.2008.03.002) come the findings set out here.

Numbers after ± are expanded uncertainties.

For series [1] the following is noted: 332.7 K; 101 kPa; Liquid.
A short description of series [2]: xn = mol fraction of the nth substance listed. To be noted: 332.7 K, 101 kPa, Liquid.

Turning to `CC(C)CCO` [3-methylbutan-1-ol], the mass density in series [1] amounted to 778.14 ± 0.37 kg/m3.

Consider `CC(C)CCO` [3-methylbutan-1-ol] + CCOC(C)=O, for which the mass density in series [2] (x2 = 0) is 778.14 ± 0.37 kg/m3; in series [2] (x2 = 0.0501), 780.94 ± 0.36 kg/m3; in series [2] (x2 = 0.1087), 784.25 ± 0.36 kg/m3; in series [2] (x2 = 0.1714), 788.1 ± 0.36 kg/m3; in series [2] (x2 = 0.2296), 791.81 ± 0.35 kg/m3; in series [2] (x2 = 0.29), 795.6 ± 0.35 kg/m3. Also, the mass density in series [2] (x2 = 0.3561) is 799.89 ± 0.34 kg/m3; in series [2] (x2 = 0.4088), 803.56 ± 0.34 kg/m3; in series [2] (x2 = 0.4659) it was 807.59 ± 0.34 kg/m3; in series [2] (x2 = 0.5339), 812.5 ± 0.33 kg/m3; in series [2] (x2 = 0.5891) it was 816.6 ± 0.33 kg/m3; in series [2] (x2 = 0.6597), 821.96 ± 0.32 kg/m3. For the same compound, the mass density worked out at 825.91 ± 0.31 kg/m3 in series [2] (x2 = 0.7088); 830.72 ± 0.31 kg/m3 in series [2] (x2 = 0.7693); 835.79 ± 0.3 kg/m3 in series [2] (x2 = 0.8286); 840.96 ± 0.3 kg/m3 in series [2] (x2 = 0.8882); 846.43 ± 0.29 kg/m3 in series [2] (x2 = 0.9488).

Consider `CCOC(C)=O` [ethyl acetate], for which the mass density in series [1] stood at 851.36 ± 0.28 kg/m3.

Consider `CCOC(C)=O` [ethyl acetate] + CC(C)CCO, for which the mass density in series [2] (x1 = 1) stood at 851.36 ± 0.28 kg/m3.
